Tests used:
Assay in all cases: radiometric filter-binding kinase assay, Kinase HotSpot
Conditions in all cases: compound 0.5 µM; ATP 10 µM
CLK4 (human) = CLK4 (human) (UniProt Q9HAZ1)
MARK3 (human) = MARK3 (human) (UniProt P27448)
IRAK4 (human) = IRAK4 (human) (UniProt Q9NWZ3)
ULK2 (human) = ULK2 (human) (UniProt Q8IYT8)
PHKG2 (human) = PHKG2 (human) (UniProt P15735)
KIT (human) = KIT (human) (UniProt P10721)
PRKD3 (human) = PRKD3 (human) (UniProt O94806)
MST4 (human) = MST4 (human) (UniProt Q9P289)
PLK2 (human) = PLK2 (human) (UniProt Q9NYY3)
PRKX (human) = PRKX (human) (UniProt P51817)
MAPK1 (human) = MAPK1 (human) (UniProt P28482)
SLK (human) = SLK (human) (UniProt Q9H2G2)
RPS6KB2 (human) = RPS6KB2 (human) (UniProt Q9UBS0)
MAPK3 (human) = MAPK3 (human) (UniProt P27361)
RAF1 (human) = RAF1 (human) (UniProt P04049)
FES (human) = FES (human) (UniProt P07332)
BLK (human) = BLK (human) (UniProt P51451)
CSF1R (human) = CSF1R (human) (UniProt P07333)
PRKD2 (human) = PRKD2 (human) (UniProt Q9BZL6)
ROCK2 (human) = ROCK2 (human) (UniProt O75116)
FGFR2 (human) = FGFR2 (human) (UniProt P21802)
EPHB3 (human) = EPHB3 (human) (UniProt P54753)
CSNK1D (human) = CSNK1D (human) (UniProt P48730)
RPS6KA1 KD1 KD2 (human) = RPS6KA1 KD1 KD2 (human) (UniProt Q15418)
SRC (human) = SRC (human) (UniProt P12931)
CAMK4 (human) = CAMK4 (human) (UniProt Q16566)
ACVR1 (human) = ACVR1 (human) (UniProt Q04771)
AKT2 (human) = AKT2 (human) (UniProt P31751)
FGFR1 (human) = FGFR1 (human) (UniProt P11362)
EPHB4 (human) = EPHB4 (human) (UniProt P54760)
MARK4 (human) = MARK4 (human) (UniProt Q96L34)
PAK1 (human) = PAK1 (human) (UniProt Q13153)
MAPK10 (human) = MAPK10 (human) (UniProt P53779)
LTK (human) = LTK (human) (UniProt P29376)
STK24 (human) = STK24 (human) (UniProt Q9Y6E0)
TAOK2 (human) = TAOK2 (human) (UniProt Q9UL54)
MAP3K7 TAB1 (human) = MAP3K7 TAB1 (human) (UniProt O43318+Q15750)
SIK2 (human) = SIK2 (human) (UniProt Q9H0K1)
CDK5 CDK5R1 p25 (human) = CDK5 CDK5R1 p25 (human) (UniProt Q00535+Q15078)
TGFBR2 (human) = TGFBR2 (human) (UniProt P37173)
PRKCZ (human) = PRKCZ (human) (UniProt Q05513)
RPS6KA3 KD1 KD2 (human) = RPS6KA3 KD1 KD2 (human) (UniProt P51812)

Chain of RPS6KA1 KD1 KD2 (human) (Q15418 whole entry, looked up): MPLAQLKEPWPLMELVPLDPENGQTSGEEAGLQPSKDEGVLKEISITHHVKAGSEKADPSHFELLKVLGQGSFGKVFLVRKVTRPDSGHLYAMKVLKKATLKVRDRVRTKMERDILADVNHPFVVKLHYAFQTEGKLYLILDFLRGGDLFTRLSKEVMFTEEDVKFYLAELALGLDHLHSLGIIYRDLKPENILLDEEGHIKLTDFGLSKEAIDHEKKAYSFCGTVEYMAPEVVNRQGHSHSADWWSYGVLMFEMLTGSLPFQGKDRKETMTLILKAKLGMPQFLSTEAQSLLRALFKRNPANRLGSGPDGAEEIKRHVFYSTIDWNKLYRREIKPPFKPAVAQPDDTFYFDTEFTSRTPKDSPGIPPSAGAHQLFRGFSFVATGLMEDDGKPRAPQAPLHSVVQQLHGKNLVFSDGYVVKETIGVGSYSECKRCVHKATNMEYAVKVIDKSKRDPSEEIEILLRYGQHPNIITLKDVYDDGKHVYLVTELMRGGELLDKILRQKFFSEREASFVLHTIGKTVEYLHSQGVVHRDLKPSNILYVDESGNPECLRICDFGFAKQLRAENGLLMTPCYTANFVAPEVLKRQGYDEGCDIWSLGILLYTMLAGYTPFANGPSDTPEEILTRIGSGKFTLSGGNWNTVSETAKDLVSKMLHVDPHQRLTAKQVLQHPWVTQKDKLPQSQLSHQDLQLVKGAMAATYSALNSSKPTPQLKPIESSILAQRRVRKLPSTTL
Chain of PAK1 (human) (Q13153 whole entry, looked up): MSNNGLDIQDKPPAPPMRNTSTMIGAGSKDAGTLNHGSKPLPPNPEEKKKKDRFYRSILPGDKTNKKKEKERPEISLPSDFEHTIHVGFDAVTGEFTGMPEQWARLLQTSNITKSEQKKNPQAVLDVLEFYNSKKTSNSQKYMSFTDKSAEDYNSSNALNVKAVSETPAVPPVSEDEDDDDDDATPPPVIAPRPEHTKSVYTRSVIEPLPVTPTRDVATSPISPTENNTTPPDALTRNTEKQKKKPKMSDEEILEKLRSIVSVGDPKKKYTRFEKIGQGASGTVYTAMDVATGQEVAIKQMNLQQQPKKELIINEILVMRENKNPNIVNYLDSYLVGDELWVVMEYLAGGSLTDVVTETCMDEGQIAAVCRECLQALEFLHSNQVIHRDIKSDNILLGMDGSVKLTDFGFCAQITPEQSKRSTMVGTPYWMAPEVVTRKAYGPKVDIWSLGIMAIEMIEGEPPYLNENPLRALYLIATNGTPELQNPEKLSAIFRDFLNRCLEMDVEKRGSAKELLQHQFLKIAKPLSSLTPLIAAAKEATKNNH
Chain of AKT2 (human) (P31751 whole entry, looked up): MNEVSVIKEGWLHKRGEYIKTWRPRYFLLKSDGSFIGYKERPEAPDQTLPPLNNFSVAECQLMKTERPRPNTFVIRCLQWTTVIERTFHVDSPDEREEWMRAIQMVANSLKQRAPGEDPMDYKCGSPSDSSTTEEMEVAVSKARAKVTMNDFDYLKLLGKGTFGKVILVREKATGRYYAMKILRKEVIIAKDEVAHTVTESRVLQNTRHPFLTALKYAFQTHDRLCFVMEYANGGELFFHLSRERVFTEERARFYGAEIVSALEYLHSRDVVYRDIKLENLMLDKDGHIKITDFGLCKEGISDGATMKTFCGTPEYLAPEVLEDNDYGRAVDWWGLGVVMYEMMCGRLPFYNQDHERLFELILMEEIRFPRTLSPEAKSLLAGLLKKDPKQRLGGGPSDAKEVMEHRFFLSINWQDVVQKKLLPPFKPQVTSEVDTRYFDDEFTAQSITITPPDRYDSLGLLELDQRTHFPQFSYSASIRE
Chain of MARK4 (human) (Q96L34 whole entry, looked up): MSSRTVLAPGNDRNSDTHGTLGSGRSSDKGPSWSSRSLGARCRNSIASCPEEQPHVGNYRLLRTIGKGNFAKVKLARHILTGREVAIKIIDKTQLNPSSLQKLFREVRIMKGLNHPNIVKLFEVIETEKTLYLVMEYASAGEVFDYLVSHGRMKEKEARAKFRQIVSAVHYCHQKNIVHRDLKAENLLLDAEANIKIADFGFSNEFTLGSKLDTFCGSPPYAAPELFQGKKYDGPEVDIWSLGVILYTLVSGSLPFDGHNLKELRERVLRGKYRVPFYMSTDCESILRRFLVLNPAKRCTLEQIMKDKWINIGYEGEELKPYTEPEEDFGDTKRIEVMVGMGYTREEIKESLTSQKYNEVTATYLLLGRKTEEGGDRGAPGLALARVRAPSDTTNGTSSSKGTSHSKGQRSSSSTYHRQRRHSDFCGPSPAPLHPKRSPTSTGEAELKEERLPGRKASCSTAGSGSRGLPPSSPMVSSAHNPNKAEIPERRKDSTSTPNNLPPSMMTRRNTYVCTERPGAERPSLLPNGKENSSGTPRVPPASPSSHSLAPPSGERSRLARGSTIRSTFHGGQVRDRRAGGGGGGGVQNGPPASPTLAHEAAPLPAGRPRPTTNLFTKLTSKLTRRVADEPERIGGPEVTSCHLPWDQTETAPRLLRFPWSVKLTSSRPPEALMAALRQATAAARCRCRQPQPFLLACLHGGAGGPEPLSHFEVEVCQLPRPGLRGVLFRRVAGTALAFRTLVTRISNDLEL
Chain of CDK5 CDK5R1 p25 (human) (Q00535 whole entry, looked up): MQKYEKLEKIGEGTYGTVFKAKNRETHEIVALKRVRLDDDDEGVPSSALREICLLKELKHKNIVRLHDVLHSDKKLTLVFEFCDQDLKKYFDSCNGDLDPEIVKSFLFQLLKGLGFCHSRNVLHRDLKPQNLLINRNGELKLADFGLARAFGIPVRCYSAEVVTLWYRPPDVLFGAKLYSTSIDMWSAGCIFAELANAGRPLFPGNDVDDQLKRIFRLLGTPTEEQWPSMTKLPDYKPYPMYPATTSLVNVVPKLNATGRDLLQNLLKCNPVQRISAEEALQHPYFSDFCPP
Chain of CDK5 CDK5R1 p25 (human) (Q15078 whole entry, looked up): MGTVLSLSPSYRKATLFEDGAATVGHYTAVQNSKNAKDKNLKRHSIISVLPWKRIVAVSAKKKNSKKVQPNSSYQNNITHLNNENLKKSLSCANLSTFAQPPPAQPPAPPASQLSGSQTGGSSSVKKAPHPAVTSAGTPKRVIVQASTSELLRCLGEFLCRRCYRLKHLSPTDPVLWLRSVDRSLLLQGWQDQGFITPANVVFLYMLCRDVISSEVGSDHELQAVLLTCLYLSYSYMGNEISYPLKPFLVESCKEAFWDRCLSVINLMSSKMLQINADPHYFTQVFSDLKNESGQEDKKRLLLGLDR
Chain of PRKX (human) (P51817 whole entry, looked up): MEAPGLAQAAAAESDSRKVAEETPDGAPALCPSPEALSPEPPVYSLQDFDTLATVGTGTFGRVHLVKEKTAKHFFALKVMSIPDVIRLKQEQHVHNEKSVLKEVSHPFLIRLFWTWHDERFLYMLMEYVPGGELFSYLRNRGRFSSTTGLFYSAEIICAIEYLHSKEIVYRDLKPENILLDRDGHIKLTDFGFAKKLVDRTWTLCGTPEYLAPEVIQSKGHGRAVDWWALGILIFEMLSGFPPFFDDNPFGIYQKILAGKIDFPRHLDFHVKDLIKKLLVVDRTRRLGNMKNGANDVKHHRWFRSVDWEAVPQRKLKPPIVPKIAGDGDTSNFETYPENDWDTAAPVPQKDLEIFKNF
Chain of STK24 (human) (Q9Y6E0 whole entry, looked up): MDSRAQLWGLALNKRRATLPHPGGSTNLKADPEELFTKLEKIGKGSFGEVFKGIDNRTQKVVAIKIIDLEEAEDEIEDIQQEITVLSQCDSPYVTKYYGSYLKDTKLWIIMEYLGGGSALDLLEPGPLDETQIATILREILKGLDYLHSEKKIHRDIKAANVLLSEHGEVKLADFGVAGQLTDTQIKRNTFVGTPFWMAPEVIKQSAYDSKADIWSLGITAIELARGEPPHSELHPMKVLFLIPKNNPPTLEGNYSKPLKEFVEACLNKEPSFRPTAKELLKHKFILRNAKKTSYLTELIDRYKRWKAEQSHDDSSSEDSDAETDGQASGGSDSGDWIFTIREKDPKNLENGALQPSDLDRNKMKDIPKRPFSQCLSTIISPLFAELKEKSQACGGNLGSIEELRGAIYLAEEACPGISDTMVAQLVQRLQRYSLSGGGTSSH
Chain of CSF1R (human) (P07333 whole entry, looked up): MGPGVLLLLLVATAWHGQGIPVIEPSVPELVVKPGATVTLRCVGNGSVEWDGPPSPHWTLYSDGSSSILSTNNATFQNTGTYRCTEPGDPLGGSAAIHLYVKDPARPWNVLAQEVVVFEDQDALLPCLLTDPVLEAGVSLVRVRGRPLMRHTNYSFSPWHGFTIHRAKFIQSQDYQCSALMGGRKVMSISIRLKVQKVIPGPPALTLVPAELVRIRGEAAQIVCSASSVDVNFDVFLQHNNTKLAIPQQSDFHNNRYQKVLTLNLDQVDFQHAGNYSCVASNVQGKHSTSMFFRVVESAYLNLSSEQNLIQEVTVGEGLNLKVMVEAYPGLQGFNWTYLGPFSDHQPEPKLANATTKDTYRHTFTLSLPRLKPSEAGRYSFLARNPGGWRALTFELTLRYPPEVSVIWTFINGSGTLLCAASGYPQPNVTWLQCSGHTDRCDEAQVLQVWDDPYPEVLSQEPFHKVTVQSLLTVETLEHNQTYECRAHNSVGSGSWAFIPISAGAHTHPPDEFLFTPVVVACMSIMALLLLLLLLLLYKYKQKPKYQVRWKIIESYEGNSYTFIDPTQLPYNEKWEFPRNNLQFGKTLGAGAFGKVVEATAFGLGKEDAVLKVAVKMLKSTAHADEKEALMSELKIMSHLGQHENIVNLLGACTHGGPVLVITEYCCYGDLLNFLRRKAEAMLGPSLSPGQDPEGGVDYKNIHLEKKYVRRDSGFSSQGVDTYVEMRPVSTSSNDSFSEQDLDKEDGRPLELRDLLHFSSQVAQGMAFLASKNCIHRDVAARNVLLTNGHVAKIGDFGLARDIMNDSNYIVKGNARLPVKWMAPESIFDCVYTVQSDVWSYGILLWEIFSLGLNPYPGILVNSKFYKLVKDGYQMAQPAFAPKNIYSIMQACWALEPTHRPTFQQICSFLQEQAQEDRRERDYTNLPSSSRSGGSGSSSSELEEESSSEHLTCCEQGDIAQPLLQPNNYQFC

For COc1cc2nccc(Oc3ccc(NC(=S)NC(=O)c4ccccc4C)cc3)c2cc1OC, the residual activity (CLK4 (human)) was 87.8%, the residual activity (MARK3 (human)) was 79.2% and the residual activity (IRAK4 (human)) was 82.4%. The residual activity (ULK2 (human)) was 88.8%, the residual activity (PHKG2 (human)) was 110% and the residual activity (KIT (human)) was 34.5%. It also gave a residual activity (PRKD3 (human)) of 97.8%, a residual activity (MST4 (human)) of 101% and a residual activity (PLK2 (human)) of 99.5%. It also gave a residual activity (PRKX (human)) of 100%, a residual activity (MAPK1 (human)) of 89.3% and a residual activity (SLK (human)) of 6.2%. The residual activity (RPS6KB2 (human)) was 97.3%, the residual activity (MAPK3 (human)) was 106% and the residual activity (RAF1 (human)) was 97%. It also gave a residual activity (FES (human)) of 96.7%, a residual activity (BLK (human)) of 8.59% and a residual activity (CSF1R (human)) of 10.5%. For the same molecule, the residual activity (PRKD2 (human)) was 86.8%, the residual activity (ROCK2 (human)) was 92.5% and the residual activity (FGFR2 (human)) was 89%. It also gave a residual activity (EPHB3 (human)) of 95.7%, a residual activity (CSNK1D (human)) of 212% and a residual activity (RPS6KA1 KD1 KD2 (human)) of 97.3%. It also gave a residual activity (SRC (human)) of 71.7%, a residual activity (CAMK4 (human)) of 103% and a residual activity (ACVR1 (human)) of 93.5%. For the same molecule, the residual activity (AKT2 (human)) was 102%, the residual activity (FGFR1 (human)) was 75.7% and the residual activity (EPHB4 (human)) was 103%. It also gave a residual activity (MARK4 (human)) of 73.3%, a residual activity (PAK1 (human)) of 101% and a residual activity (MAPK10 (human)) of 98.7%. It also gave a residual activity (LTK (human)) of 86.1%, a residual activity (STK24 (human)) of 101% and a residual activity (TAOK2 (human)) of 91.9%. The residual activity (MAP3K7 TAB1 (human)) was 95.6%, the residual activity (SIK2 (human)) was 97.8% and the residual activity (CDK5 CDK5R1 p25 (human)) was 93.2%. The residual activity (TGFBR2 (human)) was 96.7%, the residual activity (PRKCZ (human)) was 96.9% and the residual activity (RPS6KA3 KD1 KD2 (human)) was 86.9%.
O=C1Nc2ccccc2/C1=C\c1c(Cl)[nH]c2ccccc12 showed a residual activity (CLK4 (human)) of 105%, a residual activity (MARK3 (human)) of 104% and a residual activity (IRAK4 (human)) of 102%. It also gave a residual activity (ULK2 (human)) of 99.7%, a residual activity (PHKG2 (human)) of 84.2% and a residual activity (KIT (human)) of 90.2%. For the same molecule, the residual activity (PRKD3 (human)) was 87.7%, the residual activity (PLK2 (human)) was 98.2% and the residual activity (PRKX (human)) was 106%. For the same molecule, the residual activity (MAPK1 (human)) was 96.4%, the residual activity (SLK (human)) was 93.5% and the residual activity (RPS6KB2 (human)) was 99.4%. For the same molecule, the residual activity (MAPK3 (human)) was 109%, the residual activity (RAF1 (human)) was 89.9% and the residual activity (FES (human)) was 96.6%. It also gave a residual activity (BLK (human)) of 95.4%, a residual activity (CSF1R (human)) of 97.2% and a residual activity (PRKD2 (human)) of 90.2%. For the same molecule, the residual activity (ROCK2 (human)) was 90.2%, the residual activity (FGFR2 (human)) was 102% and the residual activity (EPHB3 (human)) was 91.3%. It also gave a residual activity (CSNK1D (human)) of 90.5%, a residual activity (RPS6KA1 KD1 KD2 (human)) of 105% and a residual activity (SRC (human)) of 78.5%. It also gave a residual activity (CAMK4 (human)) of 102%, a residual activity (ACVR1 (human)) of 100% and a residual activity (AKT2 (human)) of 96.8%. The residual activity (FGFR1 (human)) was 92%, the residual activity (EPHB4 (human)) was 90.2% and the residual activity (MARK4 (human)) was 106%. It also gave a residual activity (PAK1 (human)) of 92.8%, a residual activity (MAPK10 (human)) of 103% and a residual activity (LTK (human)) of 95.1%. It also gave a residual activity (STK24 (human)) of 81.5%, a residual activity (TAOK2 (human)) of 104% and a residual activity (MAP3K7 TAB1 (human)) of 99.2%. It also gave a residual activity (SIK2 (human)) of 103%, a residual activity (CDK5 CDK5R1 p25 (human)) of 86% and a residual activity (TGFBR2 (human)) of 95.6%. The residual activity (PRKCZ (human)) was 103% and the residual activity (RPS6KA3 KD1 KD2 (human)) was 82.9%.
O=c1cc(N2CCNCC2)oc2c(-c3ccccc3)cccc12 was tested, and the residual activity (CLK4 (human)) was 88.9%, the residual activity (MARK3 (human)) was 88.8% and the residual activity (IRAK4 (human)) was 96.8%. The residual activity (ULK2 (human)) was 108%, the residual activity (PHKG2 (human)) was 96.9% and the residual activity (KIT (human)) was 101%. For the same molecule, the residual activity (PRKD3 (human)) was 88.6%, the residual activity (MST4 (human)) was 96.3% and the residual activity (PLK2 (human)) was 98.9%. The residual activity (PRKX (human)) was 99%, the residual activity (MAPK1 (human)) was 65.4% and the residual activity (SLK (human)) was 105%. It also gave a residual activity (RPS6KB2 (human)) of 91%, a residual activity (MAPK3 (human)) of 119% and a residual activity (RAF1 (human)) of 94.2%. The residual activity (FES (human)) was 95.4%, the residual activity (BLK (human)) was 122% and the residual activity (CSF1R (human)) was 108%. For the same molecule, the residual activity (PRKD2 (human)) was 86.7%, the residual activity (ROCK2 (human)) was 87.5% and the residual activity (FGFR2 (human)) was 98.9%. The residual activity (EPHB3 (human)) was 94.5%, the residual activity (CSNK1D (human)) was 99.5% and the residual activity (RPS6KA1 KD1 KD2 (human)) was 104%. The residual activity (SRC (human)) was 91.2%, the residual activity (CAMK4 (human)) was 104% and the residual activity (ACVR1 (human)) was 90.3%. It also gave a residual activity (AKT2 (human)) of 100%, a residual activity (FGFR1 (human)) of 110% and a residual activity (EPHB4 (human)) of 101%. It also gave a residual activity (MARK4 (human)) of 92.8%, a residual activity (PAK1 (human)) of 99% and a residual activity (MAPK10 (human)) of 85%. The residual activity (LTK (human)) was 96.9%, the residual activity (STK24 (human)) was 89.6% and the residual activity (TAOK2 (human)) was 98.3%. The residual activity (MAP3K7 TAB1 (human)) was 94.2%, the residual activity (SIK2 (human)) was 110% and the residual activity (CDK5 CDK5R1 p25 (human)) was 94.5%. It also gave a residual activity (TGFBR2 (human)) of 88.4%, a residual activity (PRKCZ (human)) of 116% and a residual activity (RPS6KA3 KD1 KD2 (human)) of 101%.
With O=C1Nc2cc(Br)ccc2/C1=C1/Nc2ccccc2/C1=N\O the residual activity (CLK4 (human)) was 97%, the residual activity (MARK3 (human)) was 67% and the residual activity (IRAK4 (human)) was 90.1%. The residual activity (ULK2 (human)) was 94%, the residual activity (PHKG2 (human)) was 92.5% and the residual activity (KIT (human)) was 42.3%. It also gave a residual activity (PRKD3 (human)) of 87.8%, a residual activity (MST4 (human)) of 122% and a residual activity (PLK2 (human)) of 98.9%. The residual activity (PRKX (human)) was 92.1%, the residual activity (MAPK1 (human)) was 113% and the residual activity (SLK (human)) was 56.1%. It also gave a residual activity (RPS6KB2 (human)) of 100%, a residual activity (MAPK3 (human)) of 83.3% and a residual activity (RAF1 (human)) of 103%. The residual activity (FES (human)) was 96%, the residual activity (BLK (human)) was 11.3% and the residual activity (CSF1R (human)) was 74.4%. It also gave a residual activity (PRKD2 (human)) of 94.1%, a residual activity (ROCK2 (human)) of 92.1% and a residual activity (FGFR2 (human)) of 59.2%. For the same molecule, the residual activity (EPHB3 (human)) was 103%, the residual activity (CSNK1D (human)) was 85.4% and the residual activity (RPS6KA1 KD1 KD2 (human)) was 47.2%. It also gave a residual activity (SRC (human)) of 7.64%, a residual activity (CAMK4 (human)) of 96.3% and a residual activity (ACVR1 (human)) of 114%. The residual activity (AKT2 (human)) was 101%, the residual activity (FGFR1 (human)) was 45.1% and the residual activity (EPHB4 (human)) was 78.5%. It also gave a residual activity (PAK1 (human)) of 89.8%, a residual activity (MAPK10 (human)) of 97.9% and a residual activity (LTK (human)) of 89.3%. The residual activity (STK24 (human)) was 90.9%, the residual activity (TAOK2 (human)) was 92.1% and the residual activity (MAP3K7 TAB1 (human)) was 79.3%. It also gave a residual activity (SIK2 (human)) of 31.1%, a residual activity (CDK5 CDK5R1 p25 (human)) of 20.4% and a residual activity (TGFBR2 (human)) of 106%. For the same molecule, the residual activity (PRKCZ (human)) was 100% and the residual activity (RPS6KA3 KD1 KD2 (human)) was 65.7%.

— the kinase profiling compilation of Christmann-Franck et al. (2016)
